Experimental data: patent US12110279B2, “Triazolones, tetrazolones, and imidazolones, or their salts, and pharmaceutical compositions comprising the same” (Yuhan Corporation, priority 2021, dated 2024)
pIC50: −log10 of the molar value. Counter-ions that a name gives are not always drawn. Like-named read-outs stand apart in the source and are kept apart here.

Assays:
Type in all cases: biochemical
[1] = molecular target: T1, recombinant human VAP-1 (Homo sapiens, UniProt Q16853); assay: Amplex Red HRP-coupled amine oxidase activity evaluation, recombinant human VAP-1; settings: substrate 1 mM benzylamine; 30 min preincubation at 37° C.; read-out: Inhibitory Activity (IC50, nM) human VAP-1
T1 construct: purchased R&D systems
T1 sequence (Q16853 1-763): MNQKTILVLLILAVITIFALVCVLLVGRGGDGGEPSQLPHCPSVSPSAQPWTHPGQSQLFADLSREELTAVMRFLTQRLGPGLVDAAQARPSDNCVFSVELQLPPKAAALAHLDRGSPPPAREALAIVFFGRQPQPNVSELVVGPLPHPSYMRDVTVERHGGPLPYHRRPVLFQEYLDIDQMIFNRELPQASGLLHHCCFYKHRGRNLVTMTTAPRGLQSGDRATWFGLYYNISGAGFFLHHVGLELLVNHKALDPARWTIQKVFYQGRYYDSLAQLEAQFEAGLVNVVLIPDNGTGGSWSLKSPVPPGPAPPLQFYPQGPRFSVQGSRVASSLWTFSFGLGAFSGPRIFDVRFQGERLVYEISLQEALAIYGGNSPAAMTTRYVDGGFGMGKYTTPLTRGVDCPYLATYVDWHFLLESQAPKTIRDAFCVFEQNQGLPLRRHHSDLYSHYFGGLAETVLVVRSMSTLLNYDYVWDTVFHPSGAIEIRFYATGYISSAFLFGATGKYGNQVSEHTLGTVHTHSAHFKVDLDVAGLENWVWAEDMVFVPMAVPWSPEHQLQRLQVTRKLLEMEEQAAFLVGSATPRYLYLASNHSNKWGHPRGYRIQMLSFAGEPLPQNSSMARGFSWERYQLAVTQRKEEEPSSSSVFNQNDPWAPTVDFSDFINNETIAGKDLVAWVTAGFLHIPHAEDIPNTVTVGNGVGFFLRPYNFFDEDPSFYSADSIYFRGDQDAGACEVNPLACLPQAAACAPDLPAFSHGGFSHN
Experimental: (§1) The compounds according to the present technology were evaluated in terms of activity on recombinant human VAP-1 (R&D systems) by measuring the level of hydrogen peroxide in horseradish peroxidase (HRP)-coupled reaction using Amplex Red Hydrogen Peroxide Assay Kit (Molecular Probes, Invitrogen, USA). The experiment was carried out at room temperature using benzylamine as a substrate. In the HRP-coupled reaction, hydrogen peroxide oxidation of 10-acetyl-3,7-dihydroxyphenoxazine (Amplex Red reagent) produces resorufin, which is a highly fluorescent compound. Briefly, the test compound was dissolved in dimethyl sulfoxide (DMSO) at a concentration of 20 mM. The dose-response assessment was made by 1:3 serial dilution in DMSO, thereby creating an 8-point curve. The concentration of the upper part was controlled according to the efficacy of the compounds, followed by dilution with a reaction buffer solution to obtain a final DMSO concentration of less than 1%. To each well of a 96 black well plate, human VAP-1 purified in 50 mM sodium phosphate buffer solution (pH7.4) was added. The test compounds dissolved in DMSO were incubated with the human VAP-1 enzymes at 37° C. for 30 minutes. After 30-minute incubation, each well was added with a reaction mixture containing 200 uM Amplex Red reagent prepared from 50 mM sodium phosphate buffer solution (pH 7.4), 1 mM benzylamine, and 1 U/mL HRP. Fluorescence intensity was measured at several time points during 1-2 hours using a microplate reader (Flexstation3, Molecular Devices) under the wavelength condition exciting at 544 nm and reading the emission at 590 nm. The inhibitory effect of the compounds was measured as a decrease (%) in the signal rate as compared to the control group without any inhibitor (only diluted DMSO). Data was fixed to a logistic model with four variables and IC50 value was calculated using GraphPad Prism program.

[2] = molecular target: T2, recombinant human DAO (diamine oxidase) (Homo sapiens, UniProt P19801); assay: Amplex Red HRP-coupled amine oxidase activity evaluation, recombinant human DAO; settings: for IC50: substrate 1 mM putrescine, read-out: Inhibitory Activity (IC50, nM) DAO
T2 construct: purchased R&D systems
T2 sequence (P19801 20-751): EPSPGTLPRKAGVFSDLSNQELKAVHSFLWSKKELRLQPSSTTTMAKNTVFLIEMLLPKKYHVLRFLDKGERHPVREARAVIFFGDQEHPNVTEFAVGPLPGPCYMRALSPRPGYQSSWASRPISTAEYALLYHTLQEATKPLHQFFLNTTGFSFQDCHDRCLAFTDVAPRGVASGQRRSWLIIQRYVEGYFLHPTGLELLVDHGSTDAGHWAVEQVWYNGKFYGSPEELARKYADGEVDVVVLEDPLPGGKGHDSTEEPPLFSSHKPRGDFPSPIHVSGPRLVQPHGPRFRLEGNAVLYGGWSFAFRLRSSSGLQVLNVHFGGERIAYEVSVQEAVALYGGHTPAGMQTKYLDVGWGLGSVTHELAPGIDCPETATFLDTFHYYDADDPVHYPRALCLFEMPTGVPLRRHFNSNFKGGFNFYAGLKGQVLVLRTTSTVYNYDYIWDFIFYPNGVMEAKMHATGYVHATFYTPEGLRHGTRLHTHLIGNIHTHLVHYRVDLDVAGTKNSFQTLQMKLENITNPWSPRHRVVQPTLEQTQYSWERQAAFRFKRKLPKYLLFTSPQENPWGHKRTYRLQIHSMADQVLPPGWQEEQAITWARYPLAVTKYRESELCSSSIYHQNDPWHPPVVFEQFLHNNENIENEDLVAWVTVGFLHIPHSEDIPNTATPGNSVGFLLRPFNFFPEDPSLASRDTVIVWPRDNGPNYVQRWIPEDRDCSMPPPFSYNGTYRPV
Experimental: [The source words this procedure for another target and says it was used here with some conditions changed.] as §1

[3] = molecular target: T3, recombinant human MAO-B (monoamine oxidase-B) (Homo sapiens, UniProt P27338); assay: Amplex Red HRP-coupled amine oxidase activity evaluation, recombinant human MAO-B; settings: substrate 1 mM benzylamine; read-out: Inhibitory Activity (IC50, nM) MAO-B
T3 construct: purchased Sigma-Aldrich
T3 sequence (P27338 1-520): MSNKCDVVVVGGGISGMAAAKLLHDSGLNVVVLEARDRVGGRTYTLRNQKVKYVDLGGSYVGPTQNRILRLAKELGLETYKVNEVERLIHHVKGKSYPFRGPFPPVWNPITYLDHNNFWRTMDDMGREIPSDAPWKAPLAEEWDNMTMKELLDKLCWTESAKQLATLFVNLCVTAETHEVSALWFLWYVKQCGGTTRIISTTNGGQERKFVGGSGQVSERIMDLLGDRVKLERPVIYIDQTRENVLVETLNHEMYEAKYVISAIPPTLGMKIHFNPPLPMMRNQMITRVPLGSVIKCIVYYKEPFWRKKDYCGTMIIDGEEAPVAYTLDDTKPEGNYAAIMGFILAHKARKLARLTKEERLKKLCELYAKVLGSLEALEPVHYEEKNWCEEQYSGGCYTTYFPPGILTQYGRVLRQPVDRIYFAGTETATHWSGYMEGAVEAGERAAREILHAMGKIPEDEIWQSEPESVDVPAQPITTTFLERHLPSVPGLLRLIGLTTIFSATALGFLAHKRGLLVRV
Experimental: [The source words this procedure for another target and says it was used here with some conditions changed.] as §1

[4] = molecular target: T4, recombinant human MAO-A (monoamine oxidase-A) (Homo sapiens, UniProt P21397); assay: Amplex Red HRP-coupled amine oxidase activity evaluation, recombinant human MAO-A; settings: substrate 0.5 mM tyramine; read-out: Inhibitory Activity (IC50, nM) MAO-A
T4 construct: purchased Sigma-Aldrich
T4 sequence (P21397 1-527): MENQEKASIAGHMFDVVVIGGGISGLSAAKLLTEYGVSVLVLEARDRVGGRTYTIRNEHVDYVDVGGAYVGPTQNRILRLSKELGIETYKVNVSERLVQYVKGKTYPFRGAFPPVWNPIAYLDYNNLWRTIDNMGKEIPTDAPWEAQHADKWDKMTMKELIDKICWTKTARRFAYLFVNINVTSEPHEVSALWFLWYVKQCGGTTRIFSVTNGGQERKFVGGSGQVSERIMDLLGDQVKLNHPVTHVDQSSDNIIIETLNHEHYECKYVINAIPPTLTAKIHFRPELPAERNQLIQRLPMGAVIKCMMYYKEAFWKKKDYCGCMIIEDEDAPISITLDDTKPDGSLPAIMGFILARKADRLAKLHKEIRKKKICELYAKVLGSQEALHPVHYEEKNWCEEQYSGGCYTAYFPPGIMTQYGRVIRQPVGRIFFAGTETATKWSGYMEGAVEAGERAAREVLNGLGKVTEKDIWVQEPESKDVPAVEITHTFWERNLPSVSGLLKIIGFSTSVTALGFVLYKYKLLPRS
Experimental: [The source words this procedure for another target and says it was used here with some conditions changed.] as §1

SMILES | IC50 [1] | IC50 [2] | IC50 [3] | IC50 [4] | pIC50 [2]
Cc1nn(CC(CN)=C(F)F)c(=O)n1Cc1ccc(-c2ccc3c(c2)CCC(=O)N3C)s1 [Example 8, 6-[5-[[1-[2-(aminomethyl)-3,3-difluoro-allyl]-3-methyl-5-oxo-1,2,4-triazol-4-yl]methyl]-2-thienyl]-1-methyl-3,4-dihydroquinolin-2-one trifluoroacetate] | 1 nM | > 100000 nM | > 100000 nM | > 100000 nM | –
CN1C(=O)CCc2cc(-c3ccc(Cn4nnn(CC(CN)=C(F)F)c4=O)s3)ccc21 [Example 46, 6-[5-[[4-[2-(aminomethyl)-3,3-difluoro-allyl]-5-oxo-tetrazol-1-yl]methyl]-2-thienyl]-1-methyl-3,4-dihydroquinolin-2-one trifluoroacetate] | 0.5 nM | 1050 nM | 6830 nM | 63100 nM | –
Cc1nn(CC(CN)=C(F)F)c(=O)n1Cc1ccc(-c2ccc3c(c2)OCO3)s1 [Example 6, 2-[2-(aminomethyl)-3,3-difluoro-allyl]-4-[[5-(1,3-benzodioxol-5-yl)-2-thienyl]methyl]-5-methyl-1,2,4-triazol-3-one trifluoroacetate] | 2.5 nM | > 100000 nM | > 100000 nM | > 100000 nM | –
CCn1cc(-c2cccc(Cn3nnn(CC(CN)=C(F)F)c3=O)c2)cn1 [Example 32, 1-[2-(aminomethyl)-3,3-difluoro-allyl]-4-[[3-(1-ethylpyrazol-4-yl)phenyl]methyl]tetrazol-5-one trifluoroacetate] | 0.4 nM | 811 nM | 2320 nM | > 100000 nM | –
CCn1cc(-c2csc(-n3nnn(CC(CN)=C(F)F)c3=O)c2)cn1 [Example 42, 1-[2-(aminomethyl)-3,3-difluoro-allyl]-4-[4-(1-ethylpyrazol-4-yl)-2-thienyl]tetrazol-5-one trifluoroacetate] | 0.4 nM | 0.6 nM | 228 nM | > 100000 nM | –

Next, values leading:

IC50 [1] | IC50 [2] | IC50 [3] | IC50 [4] | pIC50 [2] | SMILES
1.1 nM | 8470 nM | > 100000 nM | > 100000 nM | – | NCC(Cn1nnn(-c2cc(-c3ccc(N4CCNCC4)cc3)cs2)c1=O)=C(F)F [Example 36, 1-[2-(aminomethyl)-3,3-difluoro-allyl]-4-[4-(4-piperazin-1-ylphenyl)-2-thienyl]tetrazol-5-one di-trifluoroacetate]
0.5 nM | 38 nM | 43 nM | > 100000 nM | – | CN1C(=O)CCc2cc(-c3ccc(-n4nnn(CC(CN)=C(F)F)c4=O)cc3)ccc21 [Example 21, 6-[4-[4-[2-(aminomethyl)-3,3-difluoro-allyl]-5-oxo-tetrazol-1-yl]phenyl]-1-methyl-3,4-dihydroquinolin-2-one trifluoroacetate]
> 100 nM | > 100000 nM | 59400 nM | > 100000 nM | – | Cc1ccc(-c2ccc(S(C)(=O)=O)cc2)nc1-n1nnn(CC(CN)=C(F)F)c1=O [Example 23, 1-[2-(aminomethyl)-3,3-difluoro-allyl]-4-[3-methyl-6-(4-methylsulfonylphenyl)-2-pyridyl]tetrazol-5-one trifluoroacetate]
0.4 nM | > 100000 nM | 49 nM | 82600 nM | – | Cc1cc(-c2ccc(-n3nnn(CC(CN)=C(F)F)c3=O)cc2)cc2c1NC(=O)CC2 [Example 20, 6-[4-[4-[2-(aminomethyl)-3,3-difluoro-allyl]-5-oxo-tetrazol-1-yl]phenyl]-8-methyl-3,4-dihydro-1H-quinolin-2-one trifluoroacetate]
0.3 nM | – | 74 nM | 98400 nM | 7.02 | CCn1cc(-c2ccc(-n3nnn(CC(CN)=C(F)F)c3=O)cc2)cn1 [Example 22, 1-[2-(aminomethyl)-3,3-difluoro-allyl]-4-[4-(1-ethylpyrazol-4-yl)phenyl]tetrazol-5-one trifluoroacetate]
0.7 nM | 159 nM | 14300 nM | 80100 nM | – | CN(C)c1ccc(-c2cccc(Cn3nnn(CC(CN)=C(F)F)c3=O)c2)cn1 [Example 29, 1-[2-(aminomethyl)-3,3-difluoro-allyl]-4-[[3-[6-(dimethylamino)-3-pyridyl]phenyl]methyl]tetrazol-5-one trifluoroacetate]
0.3 nM | 762 nM | 10000 nM | > 100000 nM | – | CCn1cc(-c2ccc(Cn3nnn(CC(CN)=C(F)F)c3=O)s2)ccc1=O [Example 44, 5-[5-[[4-[2-(aminomethyl)-3,3-difluoro-allyl]-5-oxo-tetrazol-1-yl]methyl]-2-thienyl]-1-ethyl-pyridin-2-one trifluoroacatate]
